Laboratory results: patent US6808875B2, “Methods for screening cellular proliferation using isotope labels” (priority 1997, dated 2004)

What was measured:
[1] = Plasma glucose enrichment during labeled glucose infusion in rats; type: in vivo
Experimental: Trimethylsilyl derivatives of nucleosides were synthesized by incubation of lyophilized hydrolysates with BSTFA:pyridine (4:1) at 100° C. for 1 hour. Samples were analyzed by GC-MS (DB-17 HT column, J&W Scientific, Folsom Calif.; HP 5890 GC and 5971MS, Hewlett Packard, Palo Alto, Calif.). Abundances of ions at mass to charge ratio (m/z) 467 and 469 were quantified under selected ion recording mode for deoxyadenosine (dA); and m/z 555 and 557 were monitored for deoxyguanosine (dG). Under the derivatization and GC-MS conditions employed, the purines (dA and dG) gave larger peaks (FIG. 3) than the pyrimidines, resulting in greater sensitivity and a higher signal-to-noise ratio. To measure the enrichment of glucose, plasma or culture media were deproteinized with perchloric acid and passed through anion and cation exchange columns (Neese et al., 1995, J. Biol. Chem. 270:14452-14463). The glucose penta-acetate derivative was formed by incubation with acetic anhydride in pyridine. GC-MS analysis was performed as described previously (Neese et al., 1995, J. Biol. Chem […]), monitoring m/z 331 and 333 under selected ion recording.
Four rats (approximately 250 g) were infused with labeled glucose. […] DNA was extracted from cell preparations, then hydrolyzed to nucleosides and analyzed by GC-MS (FIG. 2). […]

[2] = human, in vivo
Experimental: (§1) Trimethylsilyl derivatives of nucleosides were synthesized by incubation of lyophilized hydrolysates with BSTFA:pyridine (4:1) at 100° C. for 1 hour. Samples were analyzed by GC-MS (DB-17 HT column, J&W Scientific, Folsom Calif.; HP 5890 GC and 5971MS, Hewlett Packard, Palo Alto, Calif.). Abundances of ions at mass to charge ratio (m/z) 467 and 469 were quantified under selected ion recording mode for deoxyadenosine (dA); and m/z 555 and 557 were monitored for deoxyguanosine (dG). Under the derivatization and GC-MS conditions employed, the purines (dA and dG) gave larger peaks (FIG. 3) than the pyrimidines, resulting in greater sensitivity and a higher signal-to-noise ratio. […]
One subject was a healthy normal volunteer and the other three were HIV-seropositive men, who were participating in lymphocyte kinetic studies (blood CD4 T cell counts in the range 215-377/mm^3). […] Granulocyte DNA was extracted, hydrolyzed to nucleosides and analyzed by GC-MS, as described in Section 6.1.2, supra. […]
All were clinically stable at the time of investigation. […] Granulocytes were isolated and dA enrichment measured from DNA. […]
48-hr constant intravenous infusions of labeled glucose were performed to ensure a representative time sample of T cell kinetics. Enrichments of plasma glucose were measured every 12 hr during the infusion. […]

[3] = test system: HIV-1; settings: Patient #6, previous protease inhibitor
[4] = test system: hepatocyte cell line, HepG2; assay: Label incorporation into dA of DNA in cultured HepG2 cells (GC-MS, cell counting); type: cell-based; settings: HepG2, unlabeled glycerol
Experimental: (§2) DNA was prepared from cells or tissues by phenol-chloroform-isoamyl alcohol extraction of cell suspensions or tissue homogenates. Yield and purity were confirmed by optical density. After heat denaturation, DNA was hydrolyzed enzymatically to deoxyribonucleosides by sequential digestion with nuclease P1, phosphodiesterase, and alkaline phosphatase, as described by Crain et al. (Crain, 1990, Methods Enzymol. 193:782-790). Nucleoside yield and purity were confirmed by HPLC using a C-18 column and water-methanol gradient (Shigenaga et al., 1994, Methods Enzymol. 234:16-33).
as §1, with “(dG).” for “(dG). Under the derivatization and GC-MS conditions employed, the purines (dA and dG) gave larger peaks (FIG. 3) than the pyrimidines, resulting in greater sensitivity and a higher signal-to-noise ratio.”
(§3) Two cell lines were used: a hepatocyte cell line, HepG2, and a lymphocytic cell line, H9, which is a CD4^+ T cell line. […] In both cases the number of cells present was measured by counting an aliquot on a Coulter ZM0901 cell counter. […]

[5] = test system: lymphocytic cell line, H9; assay: Label incorporation into dA of DNA in cultured H9 cells (GC-MS, cell counting); type: cell-based; settings: H9, unlabeled glycerol
Experimental: as §2
as §1, with “(dG).” for “(dG). Under the derivatization and GC-MS conditions employed, the purines (dA and dG) gave larger peaks (FIG. 3) than the pyrimidines, resulting in greater sensitivity and a higher signal-to-noise ratio.”
as §3

With `[2H]C([2H])(O)[C@H]1OC(O)[C@H](O)[C@@H](O)[C@@H]1O` (stereo partly drawn) [[6,6-^2H2] glucose] the “Mean glucose enrichment for the 24 hr infusion period” value ([1]; rat, in vivo) was 9.2±0.6%, the “Plasma glucose enrichment at sacrifice” value ([1]; rats (n=4), iv infusion approximately 24 hours, fasting) was 13.2±0.9% and the “Plasma enrichment after discontinuing the intravenous infusion, % of steady-state values” [2] was less than 10%.
In the case of `CC(C)(C)NC(=O)[C@@H]1CN(Cc2cccnc2)CCN1C[C@@H](O)C[C@@H](Cc1ccccc1)C(=O)N[C@H]1c2ccccc2C[C@H]1O` [indinavir], the “viral load at failure” value [3] is reported as 28,000.
In the case of `OCC(O)CO` [unlabeled glycerol, glycerol], the “Reduction of incorporation into dA from 10% [6,6-^2H2] glucose” value [4] is reported as 7% and the “Effect on labeling from 10% [6,6-^2H2] glucose” value [5] is reported as “did not affect labeling”.
